In patent US5393768A, “Leukotriene antagonists” (Eli Lilly and Company, priority 1993, dated 1995):

Experiments:
[1] = test system: LTD4 evoked contractions of guinea pig ileum; assay: Percent inhibition of LTD4 evoked ileal contractions (single submaximal LTD4 response, 5 minute drug exposure); assay type: cell-based, guinea pig (male, Hartley); settings: Cavia porcellus; for inhibition at 0.1 µM: Compound concentration 1 × 10^-7 M; for inhibition at 0.03 µM: Compound concentration 3 × 10^-8 M; for inhibition at 1 µM: Compound concentration 1 × 10^-6 M; for inhibition at 0.3 µM: Compound concentration 3 × 10^-7 M; for inhibition at 3 µM: Compound concentration 3 × 10^-6 M; for inhibition at 0.01 µM: 5 min, Compound concentration 1 × 10^-8
Procedure: Male, Hartley guinea pigs weighing 200-450 grams were killed by decapitation. A section of terminal ileum was removed, the lumen cleaned, and the tissue divided into 2.5 cm. segments. The ilea were mounted in 10 ml. tissue baths containing Krebs-bicarbonate solution of the following composition in mmoles/-liter: KCl, 4.6; CaCl2 ·2H2 O, 1.2; KH2 PO4, 1.2; MgSO4 ·7H2 O, 1.2; NaCl, 118.2; NaHCO3, 24.8; and dextrose, 10.0. The bath fluid was maintained at 37° C. and aerated with 95 percent oxygen and 5 percent CO2. In addition, the buffer contained 1×10^-6 M atropine to reduce ileal spontaneous activity. Isometric measurements were made with a Grass FTO3C force-displacement transducer and recorded on a Grass polygraph as change in grams of force. A passive force of 0.5 g. was applied to the tissues. After an appropriate equilibration period, single submaximal control responses to pure LTD4 were obtained. Following a five minute exposure of the ileum to an experimental drug, the control concentration of LTD was added to the tissue bath. The response of the ileum to LTD4 in the presence of the drug was compared to the response in the absence of the drug.

[2] = target: T1, LTD4 evoked contractions of guinea pig ileum (Cavia porcellus, UniProt Q2NNR5); assay: LTD4 antagonism, cumulative concentration-response curves (Schild pA2); assay type: cell-based; settings: 30 minute incubation, negative log of KB
T1 construct: A section of terminal ileum was removed, the lumen cleaned, and the tissue divided into 2.5 cm. segments; from tissue; host or cells: terminal ileum of male Hartley guinea pigs
T1 sequence (Q2NNR5 1-340): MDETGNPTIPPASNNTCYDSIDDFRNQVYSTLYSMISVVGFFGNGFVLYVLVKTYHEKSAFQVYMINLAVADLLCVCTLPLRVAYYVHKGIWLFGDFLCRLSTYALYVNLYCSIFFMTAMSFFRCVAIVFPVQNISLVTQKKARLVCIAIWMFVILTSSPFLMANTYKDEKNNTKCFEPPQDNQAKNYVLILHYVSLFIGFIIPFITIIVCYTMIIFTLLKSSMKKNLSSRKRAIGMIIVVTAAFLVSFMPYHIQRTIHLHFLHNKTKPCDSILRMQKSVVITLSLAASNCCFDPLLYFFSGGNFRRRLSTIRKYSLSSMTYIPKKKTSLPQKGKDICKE
Procedure: For some of the drugs in this series a more detailed analysis of LTD4 antagonism was made. In these experiments, cumulative concentration-response curves were obtained to LTD4 in guinea pig ileum and trachea. This was followed by a 30 minute incubation with various concentrations of the experimental drug. The concentration response curve to LTD4 was then repeated in the presence of the antagonist. Only one concentration of antagonist was used on a single tissue. KB values were calculated by the method of Furchgott [Ann. N.Y. Acad. Sci., 139, 553 (1967)] using the following equation. [formula]
Dose ratio refers to the concentration of agonist required to elicit 50 percent of the maximal response (ED50) in the presence of the antagonist divided by the ED50 in the absence of the antagonist. Calculations were performed with the aid of a computer and a digital plotter.

Row | Kb [2] [nM] | pA2 [2] | Structure (SMILES) | inhibition at 0.1 µM [1] [%] | inhibition at 0.03 µM [1] [%] | inhibition at 1 µM [1] [%] | inhibition at 0.3 µM [1] [%] | inhibition at 3 µM [1] [%] | inhibition at 0.01 µM [1] [%]
1 | 31.6 | – | CCCc1c(CNc2ccc(Cc3nnn[nH]3)cc2)ccc(C(C)=O)c1O [Example 43, 5-[4-(4-Acetyl-3-hydroxy-2-propylbenzylamino)benzyl]tetrazole] | 77 | 49 | – | – | – | –
2 | 60.3 | – | CCCc1c(COc2ccc(CC(=O)O)cc2)ccc(C(C)=O)c1O [Example 12, 4-(4-Acetyl-3-hydroxy-2-propylbenzyloxy)phenylacetic acid] | 66 | 37 | 91 | 77 | – | –
3 | 91.2 | – | CC(=O)c1ccc(COc2ccc(-c3nnn[nH]3)cc2)c(C)c1O [Example 39, 5-[4-(4-Acetyl-3-hydroxy-2-methylbenzyloxy)phenyl]-tetrazole] | – | – | 90 | 70 | – | –
4 | 1780 | – | CCCc1c(COc2cccc(C(=O)O)c2)ccc(C(C)=O)c1O [Example 14, 3-(4-Acetyl-3-hydroxy-2-propylbenzyloxy)benzoic acid] | – | – | 31 | – | 67 | –
5 | 20 | – | CCCc1c(CSc2ccc(-c3nnn[nH]3)cc2)ccc(C(C)=O)c1O [Example 40, 5-[4-(4 -Acetyl-3-hydroxy-2-propylbenzylthio)phenyl]-tetrazole] | 79 | 58 | – | – | – | –
6 | 12.6 | – | CCCc1c(COc2ccc(C(C)c3nnn[nH]3)cc2)ccc(C(C)=O)c1O (centres unmarked) [Example 36, 5-[1-(4-[4-Acetyl-3-hydroxy-2-propylbenzyloxy]phenyl)ethyl]-tetrazole] | 89 | 70 | 94 | 90 | – | 44
7 | 2090 | – | CCCCC(=O)c1ccc(COc2ccc(CC(=O)O)cc2)c(CCC)c1O [Example 18, 4-(4-Pentanoyl-3-hydroxy-2-propylbenzyloxy)phenylacetic acid] | – | – | 21 | – | 65 | –
8 | 316 | – | CCCc1c(CSCc2ccc(-c3nnn[nH]3)cc2)ccc(C(C)=O)c1O [Example 38, 5-[4-(4-Acetyl-3-hydroxy-2-propylbenzylthiomethyl)phenyl]-tetrazole] | 29 | – | – | 51 | – | –
9 | 6310 | – | CCCc1c(C[S+]([O-])Cc2ccc(-c3nnn[nH]3)cc2)ccc(C(C)=O)c1O (centres unmarked) [Example 53, 5-[4-(4-Acetyl-3-hydroxy-2-propylbenzylsulfinylmethyl)phenyl]-tetrazole] | 14 | – | – | 4 | 39 | –
10 | 26.3 | – | CCCc1c(COc2ccc(CCC(=O)O)cc2)ccc(C(C)=O)c1O [Example 15, 3-[4-(4-Acetyl-3-hydroxy-2-propylbenzyloxy)phenyl]propionic acid] | 59 | – | 79 | 76 | – | –
11 | 8.71 | – | CCCc1c(COc2ccc(-c3nnn[nH]3)c(O)c2)ccc(C(C)=O)c1O [Example 34, 5-[4-(4-Acetyl-3-hydroxy-2-propylbenzyloxy)-2-hydroxyphenyl]-tetrazole] | 97 | 80 | – | 98 | – | 50
12 | – | 7.42 | CCCc1c(COc2ccc3c(=O)cc(C(=O)O)oc3c2CCC)ccc(C(C)=O)c1O [Example 10, 7-(4-Acetyl-3-hydroxy-2-propylbenzyloxy)-4-oxo-8-propyl-4H-1-benzopyran-2-carboxylic acid] | 62 | – | 97 | 86 | – | –
13 | 20 | – | CC(=O)c1ccc(COc2ccc(Cc3nnn[nH]3)cc2)c(CC(C)C)c1O [Example 42, 5-(4-[4-Acetyl-3-hydroxy-2-(2-methylpropyl)benzyloxy]benzyl)-tetrazole] | 86 | 60 | – | 88 | – | 34
14 | 12.6 | – | CCc1c(COc2ccc(Cc3nnn[nH]3)cc2)ccc(C(C)=O)c1O [Example 44, 5-[4-(4-Acetyl-3-hydroxy-2-ethylbenzyloxy)benzyl)-tetrazole] | 88 | 78 | – | – | – | 41
15 | 8.32 | – | CCCc1c(COc2ccc(CCc3nnn[nH]3)cc2)ccc(C(C)=O)c1O [Example 35, 5-[2-(4-[4-Acetyl-3-hydroxy-2-propylbenzyloxy]phenyl)ethyl]-tetrazole] | 84 | 63 | – | 90 | – | –
16 | 26.9 | – | CCCc1c(COc2ccc(C(=O)O)c(O)c2)ccc(C(C)=O)c1O [Example 13, 4-(4-Acetyl-3-hydroxy-2-propylbenzyloxy)-2-hydroxybenzoic acid] | 69 | 59 | 97 | 85 | – | 30
17 | 49 | – | CCCc1c(COCCOc2ccc(-c3nnn[nH]3)cc2)ccc(C(C)=O)c1O [Example 52, 5-(4-[2-(4-Acetyl-3-hydroxy-2-propylbenzyloxy)ethoxy]phenyl)-tetrazole] | 67 | 39 | – | 83 | – | –
18 | 550 | – | CCCc1c(COCCCCc2nnn[nH]2)ccc(C(C)=O)c1O [Example 49, 5-[4-(4-Acetyl-3-hydroxy-2-propylbenzyloxy)butyl]-tetrazole] | – | – | 64 | 36 | – | –
19 | 234 | – | CCCc1c(COc2ccc(C(=O)O)cc2)ccc(C(C)=O)c1O [Example 11, 4-(4-Acetyl-3-hydroxy-2-propylbenzyloxy)benzoic acid] | – | – | 75 | – | 94 | –
20 | 7.76 | – | CCCc1c(COc2ccc(-c3nnn[nH]3)cc2)ccc(C(C)=O)c1O [Example 32, 5-[4-(4-Acetyl-3-hydroxy-2-propylbenzyloxy)phenyl]tetrazole] | 83 | – | 94 | 94 | – | –
21 | 7.59 | – | CCCc1c(COc2ccc(Cc3nnn[nH]3)cc2)ccc(C(C)=O)c1O [Example 33, 5-[4-(4-Acetyl-3-hydroxy-2-propylbenzyloxy)benzyl]-tetrazole] | 92 | 81 | 100 | 94 | – | 31
22 | 12.3 | – | CCCc1c(COc2ccc3cc(-c4nn[nH]n4)ccc3c2)ccc(C(C)=O)c1O [Example 41, 5-[2-(6-[4-Acetyl-3-hydroxy-2-propylbenzyloxy]naphthyl)]-tetrazole] | 90 | – | – | – | – | 46
23 | 4470 | – | CCCc1c(COc2ccc(C(=O)O)cc2)ccc(C(=O)c2ccccc2)c1O [Example 17, 4-(4-Benzoyl-3-hydroxy-2-propylbenzyloxy)benzoic acid] | – | – | 5 | – | 35 | –
24 | 186 | – | CCCc1c(C=Cc2ccc(-c3nn[nH]n3)cc2)ccc(C(C)=O)c1O [Example 45, 5-[4-(2-[4-Acetyl-3-hydroxy-2-propylphenyl]ethenyl)phenyl]-tetrazole] | – | – | 74 | 57 | – | –
25 | 87.1 | – | CCCc1c(COc2ccc(OCC(=O)O)cc2)ccc(C(C)=O)c1O [Example 16, 4-(4-Acetyl-3-hydroxy-2-propylbenzyloxy)phenoxyacetic acid] | 54 | – | 88 | 88 | – | –
26 | 490 | – | CCCc1c(CNc2ccc(C(=O)O)cc2)ccc(C(C)=O)c1O [Example 47, 4-(4-Acetyl-3-hydroxy-2-propylbenzylamino)benzoic acid] | – | – | 70 | 36 | – | –
